The record followed here is patent publication EP0786470A1, “PEPTIDE COMPOUND” (SEIKAGAKU KOGYO KABUSHIKI KAISHA, priority 1993, dated 1997).

For one test, the system named is male Wistar rats. The experiment in a line: Inhibition of (±) Bay K8644-induced spontaneous behavior and rearing, drug administered to caudate nucleus putamen (Test Example 3). In kind it is in vivo, rat. As to conditions: caudate nucleus putamen administration; for number of spontaneous behavior: induced by (±) Bay K8644 (18.5 µmol/ml), in comparison with the control group (Fig. 5); for inhibition action on number of spontaneous behavior / number of rearing: induced by (±) Bay K8644; for inhibition action on number of spontaneous behavior: compared with PLG (Fig. 5); for number of rearing: compared with PLG (Fig. 6). The source says:
At the same time, the number of rearing was counted. The term rearing as used herein means an action to stand upright solely with hind legs, which is counted by the naked eye.
The number of spontaneous behavior is shown in Fig. 5, and the number of rearing in Fig. 6, both induced by (±) Bay K8644.

For test [1], the system named is Wistar rats. Conditions: for inhibition of the total number of spontaneous behavior observed within 2 hours after administration of methamphetamine: rat, in vivo; for number of spontaneous behavior: tonsillar nucleus administration, 10 µmol/ml at 2.7 µl/min for 2 minutes, after 30 minutes of methamphetamine 1.0 mg/kg i.p., control about 1,250 counts.
Procedure: (§1) Wistar rats (250 to 300 g) were anesthetized with pentobarbital (50 mg/kg, i.p.) and their parietal regions were shaved off and the head was respectively fixed on a rat brain fixing apparatus. After incising the scalp, a hole of 1 to 1.2 mm was made in the cranial bones using an electric drill, and a stainless steel guide cannula of 1 to 1.2 mm in diameter and 23 mm in length was inserted into the hole and fixed to the cranial bones with dental cement. As the insertion position of the guide cannula, co-ordinates of tonsillar nucleus (A: -1.3 mm, L: 3.4 mm and V: 8.6 mm from bregma) were selected with reference to the brain illustrations of Paxions and Watson. Rats were reared for 1 week after the operation and then used in the test.
(§2) Drug-free physiological saline containing 13% ethanol (vehicle) was used as a control in the same manner.
For test [2], the system named is Wistar rats. As to conditions: for number of spontaneous behavior: caudate nucleus putamen administration.
Procedure: as §1, §2
The mark [3] stands for this setting: after 30 minutes of methamphetamine 1.0 mg/kg i.p.

Read-outs that look alike come from different tables or passages of the source. Where a SMILES comes first, the peptide text is derived from it. [ ]: non-standard residue; d: D form. The star is where a group is joined. Piv = CC(C)(C)C(=O)*; GABA = NCCCC(=O)O

Regarding `CC(C)C[C@H](NC(=O)[C@@H](CO)NC(=O)C(C)(C)C)C(=O)NCCCC(=O)O` [PDSLG, Piv-D-Ser-Leu-GABA] (Piv-[dS]-Leu-[GABA]-OH), in the test on male Wistar rats, the “number of spontaneous behavior” value is recorded as “decreased”, the “inhibition action on number of spontaneous behavior” value is reported as “stronger than that of PLG” and the number of rearing entry is on record as “definitely strong inhibition effect in comparison with PLG”. Further, in the test on Wistar rats [1], the “inhibition of the total number of spontaneous behavior observed within 2 hours after administration of methamphetamine” value is reported as “about 25%” and the “number of spontaneous behavior” value is “about 820 counts”. Further, in the test on Wistar rats [2] (after 75 minutes of methamphetamine 1.0 mg/kg i.p.), the “number of spontaneous behavior” value is “about 300 counts”. Also, the site selectivity result in the test with Wistar rats [2] (caudate nucleus putamen versus tonsillar nucleus administration) is “stronger action on caudate nucleus putamen”.

`CC(C)C[C@H](NC(=O)[C@H](CO)NC(=O)C(C)(C)C)C(=O)NCCCC(=O)O` [PSLG, Piv-L-Ser-Leu-GABA] (Piv-Ser-Leu-[GABA]-OH): in the test with male Wistar rats, the “number of spontaneous behavior” value is on record as “decreased”, the “inhibition action on number of spontaneous behavior” value is reported as “stronger than that of PLG” and the number of rearing entry is “definitely strong inhibition effect in comparison with PLG”. In the test with Wistar rats [1], the “inhibition of the total number of spontaneous behavior observed within 2 hours after administration of methamphetamine” value is recorded as “about 25%” and the “number of spontaneous behavior” value was “about 900 counts”. For the same compound, the “number of spontaneous behavior” value with Wistar rats [2] (setting [3]) is on record as “about 600 counts”.

As for `CC(C)C[C@H](NC(=O)C(C)(C)C)C(=O)NCCCC(=O)O` [PLG, Piv-Leu-GABA, reference compound], the “number of spontaneous behavior” value in the test with male Wistar rats was “decreased”; in the test on Wistar rats [1], “about 750 counts”; in the test with Wistar rats [2] (10 µmol/ml at 2.7 µl/min for 2 minutes, after 15 minutes of methamphetamine 1.0 mg/kg i.p.), “about 650 counts”; in the test on Wistar rats [2] (setting [3]) it was “about 600 counts”.
